Experimental data reported in ChEMBL document CHEMBL4507274 (2021).

Experiments:
[1] = target: Tyrosine-protein kinase Mer (Homo sapiens) (UniProt Q12866); conditions: Compound concentration 100.0 nM
[2] = target: Atypical kinase COQ8B, mitochondrial (Homo sapiens) (UniProt Q96D53); conditions: Compound concentration 100.0 nM
[3] = target: Serine/threonine-protein kinase Sgk3 (Homo sapiens) (UniProt Q96BR1); conditions: Compound concentration 100.0 nM
[4] = target: Cyclin-dependent kinase 18 (Homo sapiens) (UniProt Q07002); conditions: Compound concentration 100.0 nM
[5] = target: G protein-coupled receptor kinase 4 (Homo sapiens) (UniProt P32298); conditions: Compound concentration 100.0 nM
Sequence of G protein-coupled receptor kinase 4 (Homo sapiens) (P32298 whole entry, looked up): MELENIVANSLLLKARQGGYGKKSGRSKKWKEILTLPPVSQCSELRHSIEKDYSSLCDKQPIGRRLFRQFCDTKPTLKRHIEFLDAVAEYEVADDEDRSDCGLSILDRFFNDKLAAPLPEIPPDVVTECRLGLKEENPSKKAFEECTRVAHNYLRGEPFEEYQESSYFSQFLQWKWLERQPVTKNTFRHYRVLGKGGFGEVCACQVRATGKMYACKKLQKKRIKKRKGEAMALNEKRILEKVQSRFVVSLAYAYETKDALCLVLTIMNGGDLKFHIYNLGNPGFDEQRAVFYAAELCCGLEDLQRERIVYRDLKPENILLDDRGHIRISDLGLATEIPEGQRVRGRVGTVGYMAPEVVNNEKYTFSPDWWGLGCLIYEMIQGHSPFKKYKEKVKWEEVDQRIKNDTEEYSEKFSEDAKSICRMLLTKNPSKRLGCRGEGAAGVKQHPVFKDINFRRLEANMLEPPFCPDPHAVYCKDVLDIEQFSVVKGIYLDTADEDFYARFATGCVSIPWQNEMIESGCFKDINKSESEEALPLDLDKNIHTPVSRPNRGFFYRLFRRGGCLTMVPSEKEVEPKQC

[6] = target: Tyrosine-protein kinase BTK (Homo sapiens) (UniProt Q06187); conditions: Compound concentration 100.0 nM
[7] = target: Casein kinase I isoform alpha (Homo sapiens) (UniProt P48729); conditions: Compound concentration 100.0 nM
Sequence of Casein kinase I isoform alpha (Homo sapiens) (P48729 2-337 limits assumed): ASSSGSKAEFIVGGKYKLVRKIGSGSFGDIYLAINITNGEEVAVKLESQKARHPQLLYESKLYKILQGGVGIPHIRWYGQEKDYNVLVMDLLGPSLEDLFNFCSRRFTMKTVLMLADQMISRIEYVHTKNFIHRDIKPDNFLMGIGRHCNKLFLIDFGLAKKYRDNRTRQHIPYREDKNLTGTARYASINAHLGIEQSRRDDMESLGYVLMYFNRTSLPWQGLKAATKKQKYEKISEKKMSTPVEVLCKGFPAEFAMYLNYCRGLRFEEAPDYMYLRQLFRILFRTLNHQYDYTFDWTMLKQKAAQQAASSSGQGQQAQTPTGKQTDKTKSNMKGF

[8] = target: Dual serine/threonine and tyrosine protein kinase (Homo sapiens) (UniProt Q6XUX3); conditions: Compound concentration 100.0 nM
[9] = test system: Receptor-type tyrosine-protein kinase FLT3 (Homo sapiens), P36888 [R834Q]; conditions: Compound concentration 100.0 nM
[10] = target: Delta-type opioid receptor (Homo sapiens) (UniProt P41143); conditions: Compound concentration 10.0 uM
Sequence of Delta-type opioid receptor (Homo sapiens) (P41143 whole entry): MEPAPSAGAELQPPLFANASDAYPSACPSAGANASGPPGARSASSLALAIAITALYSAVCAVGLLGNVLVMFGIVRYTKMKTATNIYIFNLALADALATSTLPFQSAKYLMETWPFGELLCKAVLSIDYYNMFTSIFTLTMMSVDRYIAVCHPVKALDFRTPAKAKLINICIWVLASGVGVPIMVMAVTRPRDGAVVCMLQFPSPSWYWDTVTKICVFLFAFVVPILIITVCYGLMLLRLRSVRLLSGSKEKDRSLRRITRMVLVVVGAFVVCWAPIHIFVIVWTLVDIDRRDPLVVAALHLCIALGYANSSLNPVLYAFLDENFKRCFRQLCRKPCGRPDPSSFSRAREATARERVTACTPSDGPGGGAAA

[11] = target: Serine/threonine-protein kinase PAK 2 (Homo sapiens) (UniProt Q13177); conditions: Compound concentration 100.0 nM
Sequence of Serine/threonine-protein kinase PAK 2 (Homo sapiens) (Q13177 whole entry): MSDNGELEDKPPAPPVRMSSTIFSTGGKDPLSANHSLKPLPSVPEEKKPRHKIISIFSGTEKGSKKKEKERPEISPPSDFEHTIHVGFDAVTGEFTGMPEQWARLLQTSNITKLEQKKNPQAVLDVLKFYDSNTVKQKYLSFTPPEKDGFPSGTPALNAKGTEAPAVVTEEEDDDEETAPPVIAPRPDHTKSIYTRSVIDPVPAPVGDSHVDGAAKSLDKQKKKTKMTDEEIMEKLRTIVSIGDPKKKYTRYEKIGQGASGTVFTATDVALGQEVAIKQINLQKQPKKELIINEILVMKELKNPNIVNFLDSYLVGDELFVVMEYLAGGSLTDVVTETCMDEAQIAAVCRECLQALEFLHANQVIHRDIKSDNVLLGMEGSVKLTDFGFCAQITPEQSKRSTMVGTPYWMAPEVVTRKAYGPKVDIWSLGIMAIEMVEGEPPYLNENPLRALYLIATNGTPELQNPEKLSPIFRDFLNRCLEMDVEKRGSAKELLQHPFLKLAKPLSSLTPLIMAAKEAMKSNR

[12] = target: Serine/threonine-protein kinase NLK (Homo sapiens) (UniProt Q9UBE8); conditions: Compound concentration 100.0 nM
[13] = target: Cyclin-dependent kinase 7 (Homo sapiens) (UniProt P50613); conditions: Compound concentration 100.0 nM
[14] = target: Myosin-IIIa (Homo sapiens) (UniProt Q8NEV4); conditions: Compound concentration 100.0 nM
Sequence of Myosin-IIIa (Homo sapiens) (Q8NEV4 whole entry): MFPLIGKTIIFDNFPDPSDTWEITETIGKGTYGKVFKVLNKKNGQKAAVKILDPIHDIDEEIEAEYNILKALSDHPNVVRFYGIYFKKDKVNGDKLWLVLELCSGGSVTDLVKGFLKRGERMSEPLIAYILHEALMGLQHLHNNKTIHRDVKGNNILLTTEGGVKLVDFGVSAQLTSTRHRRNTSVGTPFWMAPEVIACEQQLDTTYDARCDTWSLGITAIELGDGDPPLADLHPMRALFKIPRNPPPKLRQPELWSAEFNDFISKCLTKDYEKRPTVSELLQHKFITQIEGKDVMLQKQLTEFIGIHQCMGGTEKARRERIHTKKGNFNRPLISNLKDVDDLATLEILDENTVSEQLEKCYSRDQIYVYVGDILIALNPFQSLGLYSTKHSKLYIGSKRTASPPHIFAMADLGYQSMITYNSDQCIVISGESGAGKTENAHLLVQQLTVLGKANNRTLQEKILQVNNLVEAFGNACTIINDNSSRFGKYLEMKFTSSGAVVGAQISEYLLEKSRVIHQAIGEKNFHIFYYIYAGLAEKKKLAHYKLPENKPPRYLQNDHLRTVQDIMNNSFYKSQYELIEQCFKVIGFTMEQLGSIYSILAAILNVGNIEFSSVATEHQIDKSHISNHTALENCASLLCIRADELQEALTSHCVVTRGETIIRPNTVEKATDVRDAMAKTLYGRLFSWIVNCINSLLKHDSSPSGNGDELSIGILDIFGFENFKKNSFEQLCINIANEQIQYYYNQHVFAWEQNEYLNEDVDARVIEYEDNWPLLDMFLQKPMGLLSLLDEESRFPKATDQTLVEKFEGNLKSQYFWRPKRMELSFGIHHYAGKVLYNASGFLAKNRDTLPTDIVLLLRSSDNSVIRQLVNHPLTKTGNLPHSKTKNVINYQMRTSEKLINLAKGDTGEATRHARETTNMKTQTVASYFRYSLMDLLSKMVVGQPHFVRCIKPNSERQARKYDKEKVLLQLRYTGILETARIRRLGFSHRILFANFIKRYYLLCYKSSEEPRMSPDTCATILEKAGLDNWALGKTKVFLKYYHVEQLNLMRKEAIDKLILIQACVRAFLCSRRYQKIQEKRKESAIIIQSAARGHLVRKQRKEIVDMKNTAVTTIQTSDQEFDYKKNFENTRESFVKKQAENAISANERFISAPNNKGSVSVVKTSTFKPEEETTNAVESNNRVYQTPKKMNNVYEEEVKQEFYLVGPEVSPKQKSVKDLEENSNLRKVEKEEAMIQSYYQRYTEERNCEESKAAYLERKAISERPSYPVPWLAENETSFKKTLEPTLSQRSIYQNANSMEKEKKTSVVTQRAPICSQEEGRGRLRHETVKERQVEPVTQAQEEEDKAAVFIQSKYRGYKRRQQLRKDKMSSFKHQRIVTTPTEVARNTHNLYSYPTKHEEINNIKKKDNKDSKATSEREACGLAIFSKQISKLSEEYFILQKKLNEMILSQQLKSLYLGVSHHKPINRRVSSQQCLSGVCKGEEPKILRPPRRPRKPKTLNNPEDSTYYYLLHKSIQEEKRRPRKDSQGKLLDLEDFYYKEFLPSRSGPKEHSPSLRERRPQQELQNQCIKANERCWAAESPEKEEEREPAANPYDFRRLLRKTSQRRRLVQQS

[15] = test system: Tyrosine-protein kinase ABL1 (Homo sapiens), P00519 [T315I]; conditions: Compound concentration 100.0 nM
[16] = target: RAC-beta serine/threonine-protein kinase (Homo sapiens) (UniProt P31751); conditions: Compound concentration 100.0 nM
[17] = target: Tyrosine-protein kinase Blk (Homo sapiens) (UniProt P51451); conditions: Compound concentration 100.0 nM
[18] = target: T1, Tyrosine-protein kinase receptor TYRO3 (Homo sapiens) (UniProt Q06418); conditions: Compound concentration 100.0 nM
T1 sequence (whole entry): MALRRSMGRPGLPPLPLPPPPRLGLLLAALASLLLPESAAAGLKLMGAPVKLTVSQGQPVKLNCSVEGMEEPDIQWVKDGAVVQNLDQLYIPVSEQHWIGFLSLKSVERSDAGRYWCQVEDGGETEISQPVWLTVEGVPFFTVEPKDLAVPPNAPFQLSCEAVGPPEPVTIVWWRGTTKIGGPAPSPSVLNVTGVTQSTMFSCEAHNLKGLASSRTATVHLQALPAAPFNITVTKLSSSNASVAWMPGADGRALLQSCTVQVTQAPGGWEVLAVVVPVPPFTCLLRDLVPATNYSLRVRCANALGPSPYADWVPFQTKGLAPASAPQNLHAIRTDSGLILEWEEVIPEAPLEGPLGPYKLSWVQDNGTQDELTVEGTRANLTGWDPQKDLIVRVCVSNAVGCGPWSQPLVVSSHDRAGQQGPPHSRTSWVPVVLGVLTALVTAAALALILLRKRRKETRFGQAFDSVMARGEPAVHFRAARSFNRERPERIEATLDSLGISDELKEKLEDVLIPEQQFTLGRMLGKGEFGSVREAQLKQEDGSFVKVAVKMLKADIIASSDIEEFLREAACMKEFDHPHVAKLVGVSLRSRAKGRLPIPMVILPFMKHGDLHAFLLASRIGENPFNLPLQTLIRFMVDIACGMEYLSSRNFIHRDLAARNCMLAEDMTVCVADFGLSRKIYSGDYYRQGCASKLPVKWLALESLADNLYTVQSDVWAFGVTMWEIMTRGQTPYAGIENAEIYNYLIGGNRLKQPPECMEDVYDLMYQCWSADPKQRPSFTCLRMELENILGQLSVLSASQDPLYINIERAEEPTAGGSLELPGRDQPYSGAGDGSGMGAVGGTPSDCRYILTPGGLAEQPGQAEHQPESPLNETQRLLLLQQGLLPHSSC

[19] = target: Serine/threonine-protein kinase Nek4 (Homo sapiens) (UniProt P51957); conditions: Compound concentration 100.0 nM
[20] = target: Rhodopsin kinase GRK7 (Homo sapiens) (UniProt Q8WTQ7); conditions: Compound concentration 100.0 nM
[21] = target: BMP-2-inducible protein kinase (Homo sapiens) (UniProt Q9NSY1); conditions: Compound concentration 100.0 nM
[22] = target: Serine/threonine-protein kinase PRP4 homolog (Homo sapiens) (UniProt Q13523); conditions: Compound concentration 100.0 nM
[23] = target: LIM domain kinase 1 (Homo sapiens) (UniProt P53667); conditions: Compound concentration 100.0 nM
[24] = target: 5'-AMP-activated protein kinase catalytic subunit alpha-1 (Homo sapiens) (UniProt Q13131); conditions: Compound concentration 100.0 nM
Sequence of 5'-AMP-activated protein kinase catalytic subunit alpha-1 (Homo sapiens) (Q13131 whole entry, looked up): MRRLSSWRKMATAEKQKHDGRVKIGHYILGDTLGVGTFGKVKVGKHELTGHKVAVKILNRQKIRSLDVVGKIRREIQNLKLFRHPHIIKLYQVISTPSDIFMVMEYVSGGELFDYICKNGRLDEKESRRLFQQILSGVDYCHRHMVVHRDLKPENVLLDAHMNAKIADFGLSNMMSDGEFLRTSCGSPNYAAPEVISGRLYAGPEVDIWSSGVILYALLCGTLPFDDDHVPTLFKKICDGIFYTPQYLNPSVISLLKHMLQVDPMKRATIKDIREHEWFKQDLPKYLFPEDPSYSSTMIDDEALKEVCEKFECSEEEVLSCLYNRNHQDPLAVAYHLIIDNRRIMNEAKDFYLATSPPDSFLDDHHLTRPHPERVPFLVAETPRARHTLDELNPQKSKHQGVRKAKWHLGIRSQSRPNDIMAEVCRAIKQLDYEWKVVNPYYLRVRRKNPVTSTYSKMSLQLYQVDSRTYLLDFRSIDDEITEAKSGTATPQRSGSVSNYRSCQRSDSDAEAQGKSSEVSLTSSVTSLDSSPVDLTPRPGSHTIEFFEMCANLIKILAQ

[25] = target: Mitogen-activated protein kinase kinase kinase 19 (Homo sapiens) (UniProt Q56UN5); conditions: Compound concentration 100.0 nM
[26] = test system: Tyrosine-protein kinase ABL1 (Homo sapiens), P00519 [H396P]; conditions: Compound concentration 100.0 nM
[27] = target: D(1A) dopamine receptor (Homo sapiens) (UniProt P21728); conditions: Compound concentration 10.0 uM
Sequence of D(1A) dopamine receptor (Homo sapiens) (P21728 whole entry): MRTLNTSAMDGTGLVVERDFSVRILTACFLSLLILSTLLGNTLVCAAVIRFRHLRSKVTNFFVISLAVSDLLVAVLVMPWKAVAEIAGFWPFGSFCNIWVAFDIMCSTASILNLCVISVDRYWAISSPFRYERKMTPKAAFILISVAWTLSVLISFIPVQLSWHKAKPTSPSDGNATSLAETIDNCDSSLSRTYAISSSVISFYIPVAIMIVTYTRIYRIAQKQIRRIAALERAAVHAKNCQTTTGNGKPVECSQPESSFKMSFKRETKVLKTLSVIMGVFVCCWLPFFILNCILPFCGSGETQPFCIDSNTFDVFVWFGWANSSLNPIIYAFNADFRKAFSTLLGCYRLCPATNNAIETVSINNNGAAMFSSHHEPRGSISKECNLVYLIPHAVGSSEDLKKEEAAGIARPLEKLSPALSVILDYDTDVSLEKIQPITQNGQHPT

[28] = target: Alpha-1B adrenergic receptor (Homo sapiens) (UniProt P35368); conditions: Compound concentration 10.0 uM
[29] = target: 3-phosphoinositide-dependent protein kinase 1 (Homo sapiens) (UniProt O15530); conditions: Compound concentration 100.0 nM
[30] = target: Mitogen-activated protein kinase 3 (Homo sapiens) (UniProt P27361); conditions: Compound concentration 100.0 nM
[31] = target: Tyrosine-protein kinase JAK3 (Homo sapiens) (UniProt P52333); conditions: Compound concentration 100.0 nM
[32] = target: Ribosomal protein S6 kinase alpha-4 (Homo sapiens) (UniProt O75676); conditions: Compound concentration 100.0 nM
[33] = target: Serine/threonine-protein kinase 17B (Homo sapiens) (UniProt O94768); conditions: Compound concentration 100.0 nM

Sequence of Serine/threonine-protein kinase Sgk3 (Homo sapiens) (Q96BR1 whole entry): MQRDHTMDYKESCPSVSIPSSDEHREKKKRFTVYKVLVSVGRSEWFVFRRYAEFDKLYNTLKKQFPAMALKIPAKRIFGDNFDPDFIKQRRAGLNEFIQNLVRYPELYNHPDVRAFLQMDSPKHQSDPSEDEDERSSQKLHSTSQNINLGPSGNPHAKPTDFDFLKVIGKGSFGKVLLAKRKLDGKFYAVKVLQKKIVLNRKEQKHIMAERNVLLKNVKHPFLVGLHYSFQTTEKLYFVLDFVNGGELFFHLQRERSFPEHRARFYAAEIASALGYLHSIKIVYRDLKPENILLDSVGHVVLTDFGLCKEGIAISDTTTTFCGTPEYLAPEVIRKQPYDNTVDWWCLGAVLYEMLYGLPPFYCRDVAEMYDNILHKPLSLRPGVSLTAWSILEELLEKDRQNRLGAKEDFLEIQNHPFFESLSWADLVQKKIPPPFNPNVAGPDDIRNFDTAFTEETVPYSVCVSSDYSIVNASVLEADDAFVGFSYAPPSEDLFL

Cc1c[nH]c2nccc(Oc3c(F)cc(Nc4cc(Cl)nc(N)n4)cc3F)c12 [BAY-549]
inactive: residual activity [1] 100% | residual activity [2] 88% | residual activity [3] 88% | residual activity [4] 100% | residual activity [5] 100% | residual activity [6] 96% | residual activity [7] 96% | residual activity [8] 67% | residual activity [9] 85% | inhibition [10] 7.96% | residual activity [11] 99% | residual activity [12] 100% | residual activity [13] 91% | residual activity [14] 95% | residual activity [15] 80% | residual activity [16] 98% | residual activity [17] 90% | residual activity [18] 100% | residual activity [19] 90% | residual activity [20] 68% | residual activity [21] 100% | residual activity [22] 89% | residual activity [23] 87% | residual activity [24] 100% | residual activity [25] 74% | residual activity [26] 82% | inhibition [27] 16.1% | inhibition [28] 17% | residual activity [29] 100% | residual activity [30] 90% | residual activity [31] 92% | residual activity [32] 100% | residual activity [33] 100%

Cn1cc(Cl)c2c(Oc3c(F)cc(Nc4cc(Cl)nc(N)n4)cc3F)ccnc21 [BAY-4900]
inactive: residual activity [1] 90% | residual activity [2] 89% | residual activity [3] 90% | residual activity [4] 100% | residual activity [5] 100% | residual activity [6] 84% | residual activity [7] 93% | residual activity [8] 98% | residual activity [9] 83% | inhibition [10] -5.39% | residual activity [11] 100% | residual activity [12] 100% | residual activity [13] 100% | residual activity [14] 100% | residual activity [15] 84% | residual activity [16] 100% | residual activity [17] 96% | residual activity [18] 80% | residual activity [19] 84% | residual activity [20] 82% | residual activity [21] 100% | residual activity [22] 81% | residual activity [23] 90% | residual activity [24] 100% | residual activity [25] 75% | residual activity [26] 84% | inhibition [27] 13.2% | inhibition [28] 18.3% | residual activity [29] 61% | residual activity [30] 98% | residual activity [31] 94% | residual activity [32] 87% | residual activity [33] 84%
